# In patent publication US9126993B2, “Glucosylceramide synthase inhibitors” (GENZYME CORPORATION, priority 2011, dated 2015):
# Key:
# Fabry mice = assay: Substrate reduction therapy in Fabry mouse model: Gb3 and lyso-Gb3 levels; format: in vivo; conditions: male and female Fabry mice treated 4 months from ~8 months old; GZ 452 60 and 120 mg/kg/day, GZ 161 20 mg/kg/day
# Procedure: In the following experiments, mice dosed with GCS inhibitors at either ˜60 mg/kg/day of (S)-Quinuclidin-3-yl(2-(2-(4-fluorophenyl)thiazol-4-yl)propan-2-yl)carbamate (S)-2-hydroxysuccinate salt (hereinafter “GZ 452”) or ˜300 mg/kg/day of (1R,2R)-Octanoic acid[2-(2′,3′-dihydro-benzo[1,4] dioxin-6′-yl)-2-hydroxy-1-pyrrolidin-1-ylmethyl-ethyl]-amide-L-tartaric acid salt (hereinafter “GZ 638”) as a component of the pelleted food diet provided ad libitum. Lipid analysis was by ESI/MS as described in Marshall et al., PLoS ONE 5:e15033 (2010). As discussed in further detail below, treatment started when the mice were 3, 8 or 12 months of age to test the efficacy at different disease severities. Blood and urine was collected monthly and periodic tissue harvests provided materials to evaluate efficacy of the therapy (Gb3 and lyso-Gb3 levels). […] As further discussed below, the efficacy of SMT was affected by the age of the mice at the start of treatment. Generally, the older the mouse, the higher the levels of Gb3 stored and thus a longer period of treatment was required in order to affect similar therapeutic benefit (see FIG. 4). The experiments and results are described further below.
# In this experiment, Fabry mice were treated with GCS inhibitors in their diet for 4 months starting at 8 months old. […] Age-matched wild-type levels (WT) are also shown. […]
# K14 mice = assay: Survival of K14 mice; format: in vivo, mouse; conditions: GZ 161 5 mg/kg IP daily from P4, combination: plus ICV rhGC at P1, 2, 3
# Procedure: To determine if further benefits could be achieved by prenatal exposure to GZ 161, a subset of pregnant K14 females received GZ 161 in food using a formulation calculated to provide 20 mg/kg/day during the final 5-7 days of gestation. Females receiving GZ 161 were switched to standard diet after delivery and the pups received daily IP injections of GZ 161 at a dose of 5 mg/kg (10 μl per gram of body weight) starting at P 1. A set of WT pups born to females receiving the drug or standard formula was sacrificed immediately after birth to determine whether in utero exposure to GZ 161 could reduce brain GSL levels.
# An animal model of neuropathic Gaucher disease (nGD) identified as K14 were cryoanesthesized and received 2 μl bilateral intracerebroventricular (ICV) injections of either rhGC at 2 mg/ml or vehicle as previously described. (Cabrera-Salazar et al. (2010)) The injected pups were monitored for recovery and returned to the mother following the procedure.
# K14 mice received daily intraperitoneal injections of GZ 161 at a dose of 5 mg/kg of body weight as described above. A separate cohort of animals also received ICV injections of GC at postnatal days 1, 2 and 3 followed by daily IP injections of GZ 161. […] All animals were monitored daily for the development of neurological complications. […] This time point was recorded as end of life and analyzed using Kaplan-Meier plots. […]
structure (smiles),measurement,setting,value
"CC(C)(NC(=O)OC1CN2CCC1CC2)c1cccc(-c2ccc(F)cc2)c1 (centres unmarked) [GZ 161, Quinuclidin-3-yl(2-(4′-fluoro-[1,1′-biphenyl]-3-yl)propan-2-yl)carbamate]",Gb3 in kidney tissue relative to untreated controls,Fabry mice,significantly reduced the amount of Gb3
same,median lifespan,K14 mice,18 days
